Measured values reported in patent US6716833B2, “Acetylenic α-amino acid-based sulfonamide hydroxamic acid tace inhibitors” (priority 1999, dated 2004).
Structures can show the parent of a compound that is named as a salt. Where two headings read alike, the source gives them in different places.

Experiments:
[1] = biological target: T1, MMP-1 (Homo sapiens, UniProt P03956); assay: MMP-1 inhibition (thiopeptide or fluorescent peptide substrate); format: biochemical
T1 sequence (P03956 100-469): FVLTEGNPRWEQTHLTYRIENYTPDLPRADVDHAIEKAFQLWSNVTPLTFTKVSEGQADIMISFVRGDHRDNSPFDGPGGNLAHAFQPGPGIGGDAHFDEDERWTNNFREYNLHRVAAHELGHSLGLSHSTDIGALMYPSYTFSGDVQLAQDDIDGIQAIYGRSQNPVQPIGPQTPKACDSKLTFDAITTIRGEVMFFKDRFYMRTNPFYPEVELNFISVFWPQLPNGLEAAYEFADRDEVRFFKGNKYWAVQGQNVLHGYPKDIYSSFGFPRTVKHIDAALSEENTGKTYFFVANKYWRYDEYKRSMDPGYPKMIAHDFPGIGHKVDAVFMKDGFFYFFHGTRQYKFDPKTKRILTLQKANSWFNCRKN
Method: (§1) The enzyme activity is measured by the rate of the color increase. The thiopeptide substrate is made up fresh as a 20 mM stock in 100% DMSO and the DTNB is dissolved in 100% DMSO as a 100 mM stock and stored in the dark at room temperature. Both the substrate and DTNB are diluted together to 1 mM with substrate buffer (50 mM HEPES pH 7.5, 5 mM CaCl2) before use. The stock of enzyme is diluted with buffer (50 mM HEPES, pH 7.5, 5 mM CaCl2, 0.02% Brij) to the desired final concentration.
(§2) Alternatively, a fluorescent peptide substrate is used. In this test procedure, the peptide substrate contains a fluorescent group and a quenching group. Upon cleavage of the substrate by an MMP, the fluorescence that is generated is quantitated on the fluorescence plate reader. The assay is run in HCBC assay buffer (50 mM HEPES, pH 7.0, 5 mM Ca^+2, 0.02% Brij, 0.5% Cysteine), with human recombinant MMP-1, MMP-9, or MMP-13. […] For the assay, substrate and enzymes are diluted in HCBC buffer to the desired concentrations. Compounds are added to the 96 well plate containing enzyme and the reaction is started by the addition of substrate.
(§3) For either the thiopeptide or fluorescent peptide test procedures, the slope of the line is calculated and represents the reaction rate. The linearity of the reaction rate is confirmed (r^2>0.85). The mean (x±sem) of the control rate is calculated and compared for statistical significance (p<0.05) with drug-treated rates using Dunnett's multiple comparison test.

[2] = biological target: MMP-9 (Homo sapiens, UniProt P14780); assay: MMP-9 inhibition (thiopeptide or fluorescent peptide substrate); format: biochemical
Method: as §1, §2, §3

[3] = biological target: MMP-13 (Homo sapiens, UniProt P45452); assay: MMP-13 inhibition (thiopeptide or fluorescent peptide substrate); format: biochemical
[4] = biological target: TNF-α converting enzyme (TACE) (Homo sapiens, UniProt P78536); assay: TACE inhibition (fluorescent peptidyl substrate); format: biochemical; conditions: read-out: TACE IC50
[5] = tested on: THP-1 cells; assay: THP-1 soluble protein assay, soluble TNF-α (ELISA); format: cell-based, human; conditions: for inhibition at 3 µM: Homo sapiens
Method: Each vial of cells are cultured for about two weeks prior to being used for an assay and then are used for only 4 to 6 weeks to screen compounds.
Cell exposure to DMSO was limited to 0.1% final concentration. […] Plates are placed into an incubator set at 5% CO2 and at 37° C. After 4 hours of incubation, 300 ml/well of tissue culture supernatant (TCS) is removed for use in an TNF-α ELISA.
Percent change in each soluble protein evaluated from the “vehicle positive control” was calculated for each compound concentration with the following formula:
% Change=pg/ml (compound)−pg/ml (veh pos control)/(veh pos control)−pg/ml (veh neg control)×100
For the soluble protein (TNF-α, p75/80, p55/60, IL-8) studies under stimulated conditions, the mean pg/ml of duplicate wells were determined and the results expressed as percent change from “vehicle positive control”.

[6] = THP-1, 3 μM, THP-1 cells, read-out: THP % Inhibition @ 3 μM

Sequence of MMP-9 (P14780 94-707): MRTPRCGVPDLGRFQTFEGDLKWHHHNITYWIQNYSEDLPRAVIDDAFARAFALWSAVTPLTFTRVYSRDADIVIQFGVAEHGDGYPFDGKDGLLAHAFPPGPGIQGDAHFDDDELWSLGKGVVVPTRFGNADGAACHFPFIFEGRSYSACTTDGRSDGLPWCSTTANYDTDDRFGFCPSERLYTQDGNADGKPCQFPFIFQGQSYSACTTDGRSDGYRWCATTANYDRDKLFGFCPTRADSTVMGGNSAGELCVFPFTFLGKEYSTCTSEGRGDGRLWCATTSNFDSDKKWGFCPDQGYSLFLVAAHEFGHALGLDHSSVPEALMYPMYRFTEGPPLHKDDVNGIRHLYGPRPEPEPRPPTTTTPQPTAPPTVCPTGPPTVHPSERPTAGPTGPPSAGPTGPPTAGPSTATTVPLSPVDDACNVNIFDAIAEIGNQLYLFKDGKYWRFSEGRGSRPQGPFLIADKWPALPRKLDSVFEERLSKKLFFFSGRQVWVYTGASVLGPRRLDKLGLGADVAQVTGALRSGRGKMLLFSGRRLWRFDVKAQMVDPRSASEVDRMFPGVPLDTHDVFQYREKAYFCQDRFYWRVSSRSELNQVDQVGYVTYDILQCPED
Sequence of TNF-α converting enzyme (TACE) (P78536 215-824, species assumed): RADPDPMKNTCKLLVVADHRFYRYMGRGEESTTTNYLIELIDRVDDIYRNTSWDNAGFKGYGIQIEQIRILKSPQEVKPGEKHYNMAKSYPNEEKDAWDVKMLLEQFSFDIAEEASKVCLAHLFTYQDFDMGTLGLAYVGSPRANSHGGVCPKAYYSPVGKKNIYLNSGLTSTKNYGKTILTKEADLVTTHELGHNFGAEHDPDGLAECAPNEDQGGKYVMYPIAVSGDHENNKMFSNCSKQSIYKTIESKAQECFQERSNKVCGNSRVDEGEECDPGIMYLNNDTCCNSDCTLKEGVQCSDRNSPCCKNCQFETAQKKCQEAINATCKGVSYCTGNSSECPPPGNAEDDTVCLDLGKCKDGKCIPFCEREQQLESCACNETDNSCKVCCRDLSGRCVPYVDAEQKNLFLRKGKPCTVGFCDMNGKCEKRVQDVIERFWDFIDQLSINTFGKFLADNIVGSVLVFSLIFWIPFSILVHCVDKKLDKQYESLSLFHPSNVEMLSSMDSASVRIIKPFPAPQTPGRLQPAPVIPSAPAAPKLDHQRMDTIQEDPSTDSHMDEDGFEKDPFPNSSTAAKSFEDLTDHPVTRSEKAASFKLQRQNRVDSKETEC

| Compound | IC50 ([1]; read-out: MMP-1 IC50) | IC50 ([2]; read-out: MMP-9 IC50) | IC50 ([3]; read-out: MMP-13 IC50) | IC50 [4] | THP % Inhibition @ 3 μM ([5]; THP-1 cells) | inhibition at 3 µM [5, 6] | further results |
| --- | --- | --- | --- | --- | --- | --- | --- |
| CN(CC(=O)NO)S(=O)(=O)c1ccc(OCC#Cc2ccc(Cl)cc2)cc1 [Example 132] | > 10000 nM | 2370 nM | 1120 nM | 1100 nM | 27% |  |  |
| CC#CCOc1ccc(S(=O)(=O)N2CCN(S(C)(=O)=O)CC2C(=O)NO)cc1 (centres unmarked) [Example 227, 1-(4-but-2-ynyloxy-Benzenesulfonyl)-4-methanesulfonyi-piperazine-2-carboxylic Acid Hydroxyamide] | 96 nM | 51 nM | 6.4 nM |  |  | 81% |  |
| CC#CCOc1ccc(S(=O)(=O)NC(CSC)C(=O)NO)cc1 (centres unmarked) [Example 167] | 1740 nM | 228 nM |  | 3.5 nM | 77% |  |  |
| 2-[[4-Butynyloxy-phenylsulfonyl]-amino]-N-hydroxy-3-(pyridinylthio)propanamide [Example 169] | 1910 nM | 160 nM | 28 nM | 2.9 nM | 77% |  |  |
| CC#CCOc1ccc(S(=O)(=O)NC(CSCc2ccccc2)C(=O)NO)cc1 (centres unmarked) [Example 168] | 1970 nM | 141 nM |  | 4.5 nM | 62% |  |  |
| CC#CCOc1ccc(S(=O)(=O)NC(CSCCCCCCCCCC/C=C\CC)C(=O)NO)cc1 (centres unmarked) [Example 170, 2-({[4-(2-butynyloxy)phenyl]sulfonyl}amino)-N-hydroxy-3-[(Z)-11-tetradecenylsulfanyl]propanamide] | > 10000 nM | 1570 nM | 322 nM | 272 nM |  | 7% |  |
| CC#CCOc1ccc(S(=O)(=O)NC(C(=O)NO)C(C)C)cc1 (centres unmarked) [Example 27, 2-(4-but-2-ynyloxy-Benzenesulfonylamino)-N-hydroxy-3-methyl-butyramide] |  |  |  | 32 nM |  | 75% | IC50 ([1]; MMP-1 IC50): 2960 nM; IC50 ([2]; MMP-9 IC50): 42 nM; IC50 ([3]; MMP-13 IC50): 18 nM |
| CC#CCOc1ccc(S(=O)(=O)NCC(=O)NO)cc1 [Example 25, 2-(4-but-2-ynyloxy-Benzenesulfonylamino)-N-hydroxy-acetamide] |  | 753 nM |  | 4.8 nM |  | 39% | MMP-1 % inhibition (10) ([1]; at (10), concentration unit not given): 47%(10) |
| CC#CCOc1ccc(S(=O)(=O)NC(C(=O)NO)C(C)(C)SCc2cccnc2)cc1 (centres unmarked) [Example 161] | 476 nM | 130 nM | 7.9 nM | 6.4 nM | 81% |  |  |
| CC#CCOc1ccc(S(=O)(=O)N2CCSC3(CCCCC3)C2C(=O)NO)cc1 (centres unmarked) [Example 237] |  |  |  |  |  |  | IC50 ([1]; Table 9, read-out: MMP-1 IC50): 62 nM; IC50 ([3]; Table 9, read-out: MMP-13 IC50): 12 nM; IC50 ([4]; Table 9): 212 nM; THP % Inhibition @ 3 μM ([5]; Table 9): 90% |
| CC#CCOc1ccc(S(=O)(=O)N2CCSC(CC)(CC)C2C(=O)NO)cc1 (centres unmarked) [Example 238] |  |  |  |  |  |  | IC50 ([1]; Table 9, read-out: MMP-1 IC50): 38 nM; IC50 ([3]; Table 9, read-out: MMP-13 IC50): 6.8 nM; IC50 ([4]; Table 9): 228 nM; THP % Inhibition @ 3 μM ([5]; Table 9): 73% |
| CC1(C)SCCN(S(=O)(=O)c2ccc(OCC#CCO)cc2)[C@H]1C(=O)NO [Example 260, (3S)-N-Hydroxy-4-({4-[(4-hydroxy-2-butynyl)oxy]phenyl}sulfonyl)-2,2-dimethyl-3-thiomorpholine Carboxamide] |  |  |  |  |  |  | IC50 ([1]; Table 10, read-out: MMP-1 IC50): 33 nM; IC50 ([3]; Table 10, read-out: MMP-13 IC50): 8.1 nM; IC50 ([4]; Table 10): 20 nM; inhibition at 3 µM ([5]; THP-1, 3 μM, Table 10, read-out: THP % Inhibition @ 3 μM): 95% |
| 3-(Benzylthio)-2-[[[4-(2-butynyloxy)phenyl]sulfonyl]methylamino]-N-hydroxypropanamide [Example 156] |  |  | 4.5 nM | 4.8 nM | 75% |  |  |
| CC#CCOc1ccc(S(=O)(=O)NC(C(=O)NO)C(C)(C)SCC(=O)O)cc1 (centres unmarked) [Example 166, tert-Butyl {[2-({[4-2-Butynyloxy)phenyl]sulfonyl}amino)-3-(hydroxyamino)-1,1-dimethyl-3-oxopropyl]sulfanyl Acetic Acid, Sodium Salt] | 1900 nM | 2940 nM | 241 nM |  |  | 55% |  |
| CC#CCOc1ccc(S(=O)(=O)N(CC(=O)NO)Cc2cccnc2)cc1 [Example 23, 2-[(4-but-2-ynyloxy-Benzenesulfonyl)-pyridin-3-ylmethyl-amino]-N-hydroxyacetamide Hydrochloride] |  |  |  |  |  |  | inhibition at 3 µM ([5]; THP-1, read-out: THP % Inhibition @ 3 μM): 63% |
| CC#CCOc1ccc(S(=O)(=O)N[C@@H](C(=O)NO)C(C)(C)SCCCO)cc1 [Example 171, (2S)-2-({[4-(2-Butynyloxy)phenyl]sulfonyl}amino)-N-hydroxy-3-[(3-hydroxypropyl)sulfanyl]-3-methylbutanamide] | 2140 nM |  | 36 nM | 25 nM |  | 67% |  |
| 2-[(4-but-2-Ynylthiophenylsulfonyl)methylamino]-N-hydroxyacetamide [Example 134] | 4950 nM | 111 nM | 84 nM |  | 14% |  |  |
| CC#CCOc1ccc(S(=O)(=O)NC2(C(=O)NO)CCNCC2)cc1 [Example 288, 4-({[4-(2-Butynyloxy)phenyl]sulfonyl}amino)-N-hydroxy-4-piperidinecarboxamide] | > 10000 nM |  | > 10000 nM | 50 nM |  | 25% |  |
| CC#CCOc1ccc(S(=O)(=O)N[C@H](CSCCCO)C(=O)NO)cc1 [Example 172, (2S)-2-({[4-(2-Butynyloxy)phenyl]sulfonyl}amino)-N-hydroxy-3-[(3-hydroxypropyl)sulfanyl]-3-propanamide] | > 1000 nM |  | 169 nM | 11 nM |  | 70% |  |
| CC#CCOc1ccc(S(=O)(=O)N(C)C(C(=O)NO)C(C)(C)SCC)cc1 (centres unmarked) [Example 150, 2-[(4-but-2-ynyloxy-Benenesulfonyl)-methyl-amino]-N-hydroxy-3-methyl-3-ethylsulfanyl-butyramide] | 25 nM |  | 9.3 nM | 51 nM | 86% |  |  |
| CC#CCOc1ccc(S(=O)(=O)NC(C)(C)C(=O)NO)cc1 [Example 35, 2-(4-but-2-ynyloxy-Benzenesulfonylamino)-N-hydroxy-2-methyl-propionaiwde] |  | 1380 nM | 396 nM | 12.9 nM |  | 9% |  |
| CC#CCOc1ccc(S(=O)(=O)N2C[C@H](CNC(=O)OC(C)(C)C)SC(C)(C)[C@@H]2C(=O)NO)cc1 [Example 274, tert-Butyl{(2S,5S)-4-{[4-(2-butynyloxy)phenyl]sulfonyl}-5-[(hydroxyamino)carbonyl]-6,6-dimethylthiomorpholinyl}methylcarbamate] |  |  |  |  |  |  | IC50 ([2]; Table 11, read-out: MMP-9 IC50): 107 nM; IC50 ([4]; Table 11): 59 nM; THP % Inhibition @ 3 μM ([5]; Table 11): 84% |
| CC#CCOc1ccc(S(=O)(=O)N2C[C@@H](CNC(=O)OC(C)(C)C)SC(C)(C)[C@@H]2C(=O)NO)cc1 [Example 273, tert-Butyl{(2R,5S)-4-{[4-(2-butynyloxy)phenyl]sulfonyl}-5-[(hydroxyamino)carbonyl]-6,6-dimethylthiomorpholinyl}methylcarbamate] |  |  |  |  |  |  | IC50 ([2]; Table 11, read-out: MMP-9 IC50): 61 nM; IC50 ([4]; Table 11): 87 nM; inhibition at 3 µM ([5]; THP-1, 3 μM, Table 11, read-out: THP % Inhibition @ 3 μM): 90% |
| CC#CCOc1ccc(S(=O)(=O)NC2(C(=O)NO)CCN(C(=O)OC(C)(C)C)CC2)cc1 [Example 287, tert-Butyl 4-({[4-(2-Butynyloxy)phenyl]sulfonyl}amino)-4-[(hydroxyamino)carbonyl]-1-piperidinecarboxylate] | > 10000 nM |  | 530 nM | 37 nM |  | 60% |  |
